Reference: PubChem BioAssay AID449727 (Sanford-Burnham Center for Chemical Genomics, 2010)
pIC50: −log10 of the molar value.

target: Tyrosine-protein phosphatase non-receptor type 22 (Homo sapiens) (UniProt Q9Y2R2); test: LYP (PTPN22) phosphatase inhibitor potency, SAR follow-up, biochemical, pCAP fluorogenic substrate, fluorescence, set 3 (AID 449727); settings: recombinant LYP
Sequence (Q9Y2R2 whole entry, looked up): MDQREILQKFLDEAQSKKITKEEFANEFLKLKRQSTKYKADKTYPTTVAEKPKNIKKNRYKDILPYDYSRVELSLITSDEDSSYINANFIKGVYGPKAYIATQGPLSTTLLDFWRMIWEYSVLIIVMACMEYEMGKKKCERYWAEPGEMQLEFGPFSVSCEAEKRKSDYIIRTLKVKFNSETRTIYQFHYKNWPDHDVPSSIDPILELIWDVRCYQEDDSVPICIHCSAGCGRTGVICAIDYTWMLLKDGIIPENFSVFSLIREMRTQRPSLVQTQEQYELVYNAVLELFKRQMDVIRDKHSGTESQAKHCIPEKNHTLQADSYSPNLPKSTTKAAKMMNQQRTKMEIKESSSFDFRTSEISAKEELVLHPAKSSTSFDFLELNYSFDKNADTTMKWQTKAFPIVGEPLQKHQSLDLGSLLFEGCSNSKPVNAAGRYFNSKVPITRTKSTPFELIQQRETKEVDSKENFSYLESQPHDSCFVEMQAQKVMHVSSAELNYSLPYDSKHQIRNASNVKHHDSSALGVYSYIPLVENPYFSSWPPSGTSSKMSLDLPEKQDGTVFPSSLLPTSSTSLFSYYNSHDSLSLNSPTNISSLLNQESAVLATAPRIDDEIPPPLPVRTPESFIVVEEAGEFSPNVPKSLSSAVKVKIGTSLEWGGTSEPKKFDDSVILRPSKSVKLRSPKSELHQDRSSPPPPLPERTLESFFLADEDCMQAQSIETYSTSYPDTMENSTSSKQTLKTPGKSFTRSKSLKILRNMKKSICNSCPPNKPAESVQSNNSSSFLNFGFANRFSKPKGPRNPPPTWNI

pIC50, active:
CCOC(=O)C1=C(C)N=c2s/c(=C/c3cc(Cl)c(OCC(=O)O)c(OC)c3)c(=O)n2C1c1ccccc1Cl (stereo unspecified) 4.51, COc1ccc(/C=C2\SC(=S)N(CCC(=O)Nc3ccc(C(=O)O)cc3)C2=O)cc1OC 5.53, Cc1c(Cl)cccc1NS(=O)(=O)c1ccc2c(c1)C1C=CCC1C(c1ccc(C(=O)O)cc1)N2 (stereo unspecified) 4.33, O=C(O)CCCN1C(=O)/C(=C/c2ccc(-c3nc4ccccc4s3)o2)SC1=S 5.40, N#C/C(=C\c1ccc(OCc2ccc(Cl)cc2)cc1)C(=O)Nc1cccc(C(=O)O)c1 5.20, CCc1ccc(/C=C2\SC(=S)N(CCCC(=O)Nc3ccc(C(=O)O)cc3)C2=O)cc1 4.12
